Results from PubChem BioAssay (NCI).
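The compound was tested at five concentrations on cells cultured in 96-well plates, with a 48-hour exposure period. GI50 is the concentration that inhibits growth by half. TGI is the concentration that stops growth completely.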

Experiments:
Assay in all cases: NCI tumour cell line growth inhibition, 48 h
CCRF-CEM leukemia = system: CCRF-CEM leukemia
HOP-92 NSCLC = system: HOP-92 NSCLC
SF-295 CNS = system: SF-295 CNS
NCI-H460 lung = system: NCI-H460 lung
MOLT-4 leukemia = system: MOLT-4 leukemia
786-0 renal = system: 786-0 renal
COLO 205 colon = system: COLO 205 colon
HT29 colon = system: HT29 colon
T-47D breast = system: T-47D breast
SF-539 CNS = system: SF-539 CNS

SMILES	GI50 (CCRF-CEM leukemia) [µM]	TGI (CCRF-CEM leukemia) [µM]	GI50 (HOP-92 NSCLC) [µM]	TGI (HOP-92 NSCLC) [µM]	GI50 (SF-295 CNS) [µM]	TGI (SF-295 CNS) [µM]	GI50 (NCI-H460 lung) [µM]	TGI (NCI-H460 lung) [µM]	GI50 (MOLT-4 leukemia) [µM]	TGI (MOLT-4 leukemia) [µM]	GI50 (786-0 renal) [µM]	TGI (786-0 renal) [µM]	GI50 (COLO 205 colon) [µM]	TGI (COLO 205 colon) [µM]	GI50 (HT29 colon) [µM]	TGI (HT29 colon) [µM]	GI50 (T-47D breast) [µM]	TGI (T-47D breast) [µM]	GI50 (SF-539 CNS) [µM]	TGI (SF-539 CNS) [µM]
N#Cc1ccc(-n2cnc(NC(=O)[C@H]3CCN(C#N)C3)c2)cc1	1.03	> 100	1.92	6.98	2.79	> 66.3	2.35	> 34.7	2.15	> 29.8	2.42	9.11	0.372	1.93	1.29	7.3	0.706	6.86	1.18	5.95
COc1cc(/C=C2\C(=O)N(c3c(Cl)cccc3Cl)c3ccccc32)cc(OC)c1O	0.555	19.9	1.97	11	0.702	16.7	0.342	4.58	0.455	20.4	1.49	17.4	5.94	18.7	2.17	8.62	2.89	17.8	0.531	17.3
CC1=CC(C)C(O)C(C)/C=C/C(O)C/C=C(/C)C(=O)CC(O)C(C)\C=C/C=C/C=C\C(=O)NC2=C(O)c3cc(C)c(O)c(c3C(=O)C2=O)C1=O (stereo not given)		> 100		> 100		> 100		> 100		> 100		> 100		> 100		> 100		> 100		> 100
CCOC(=O)C(=Cc1ccc(Br)cc1)C(=O)OCC	0.838	7.34	1.45	4.8	2.74	9.36	2.37	5.73	2.94	20.2	2.01	3.85	1.89	3.94	2.25	5.86	2.12	6	1.72	3.13
Cc1ccc(NC2=C(Cl)C(=O)c3nc(C)ccc3C2=O)cc1	2.65	> 100	1.4	2.93	1.55	2.95	1.69	4.57	2.52	> 100	1.75	3.23	1.93	4.37	2.79	8.46	1.08	3.3	1.67	3.11
COc1ccc2[nH]cc(/C=C3\C(=O)Nc4ccccc43)c2c1	3.94	18.8	3.84	13.6	10.8	30	4.09	18.7	2.33	7.4	11.9	30.2	3.86	23.2	3.6	14.3	4.91	30.3	5.43	18.1
CCOC(=O)c1c(C)c2c(n1C)CSc1cc(S(=O)(=O)c3ccccc3)c(=O)[nH]c1-2	27.5	> 100	1.11	28.5	14	61.9	25.7	> 100	11.2	98.6	35.1	> 100	14.3	36.3	16.3	34.5	10.5	74.7	24.5	> 100
NC(=O)c1c(OCc2c(F)cc(Br)cc2F)nsc1NC(=O)NCCCCN1CCCC1	2.77	8.17	0.323	> 10	2.26	> 10	2.6	> 10	2.14	9.76	1.43	4.42	1.9	4.05	1.46	6.77	1.18	> 10	1.38	2.92
